What was measured:
[1] = biological target: T1, menin/MLL (terbium chelate-labeled menin, FITC-MBM1 peptide) (Homo sapiens, UniProt O00255, T541A); experiment: Menin/MLL homogenous time-resolved fluorescence (HTRF) assay; assay type: binding; conditions: 30 min incubation
T1 construct: Menin (a.a 1-610-6xhis tag)
T1 sequence (O00255 with tags, fused parts or gaps T541A): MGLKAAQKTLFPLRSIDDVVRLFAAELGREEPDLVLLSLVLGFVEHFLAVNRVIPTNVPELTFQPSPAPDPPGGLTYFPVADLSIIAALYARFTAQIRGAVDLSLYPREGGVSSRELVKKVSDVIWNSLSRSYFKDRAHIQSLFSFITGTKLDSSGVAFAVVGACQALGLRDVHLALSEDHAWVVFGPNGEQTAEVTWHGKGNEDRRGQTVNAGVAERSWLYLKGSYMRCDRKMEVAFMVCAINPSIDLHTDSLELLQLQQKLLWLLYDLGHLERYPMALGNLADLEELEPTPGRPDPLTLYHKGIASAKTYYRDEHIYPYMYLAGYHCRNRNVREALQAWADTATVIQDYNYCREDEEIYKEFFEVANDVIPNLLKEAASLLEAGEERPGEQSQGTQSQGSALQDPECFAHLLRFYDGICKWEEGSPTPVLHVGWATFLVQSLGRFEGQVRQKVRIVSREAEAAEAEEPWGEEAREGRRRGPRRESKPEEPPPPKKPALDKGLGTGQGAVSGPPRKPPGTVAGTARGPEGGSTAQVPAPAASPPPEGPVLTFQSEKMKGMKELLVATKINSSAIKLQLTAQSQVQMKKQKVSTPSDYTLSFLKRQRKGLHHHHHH
Method: 1) Menin/MLL Homogenous Time-Resolved Fluorescence (HTRF) Assay
To an untreated, white 384-well microtiter plate was added 40 nL 200× test compound in DMSO and 4 μL 2× terbium chelate-labeled menin (vide infra for preparation) in assay buffer (40 mM Tris.HCl, pH 7.5, 50 mM NaCl, 1 mM DTT (dithiothreitol) and 0.05% Pluronic F-127). After incubation of test compound and terbium chelate-labeled menin for 30 min at ambient temperature, 4 μL 2× FITC-MBM1 peptide (FITC-β-alanine-SARWRFPARPGT-NH2 (SEQ ID NO: 3)) (“FITC” means fluorescein isothiocyanate) in assay buffer was added, the microtiter plate centrifuged at 1000 rpm for 1 min and the assay mixtures incubated for 15 min at ambient temperature. The relative amount of menin FITC-MBM1 complex present in an assay mixture is determined by measuring the homogenous time-resolved fluorescence (HTRF) of the terbium/FITC donor/acceptor fluorophore pair using an EnVision microplate reader (ex. 337 nm/terbium em. 490 nm/FITC em. 520 nm) at ambient temperature. The degree of fluorescence resonance energy transfer (the HTRF value) is expressed as the ratio of the fluorescence emission intensities of the FITC and terbium fluorophores (F^em 520 nm/F^em 490 nm). The final concentrations of reagents in the binding assay are 200 pM terbium chelate-labeled menin, 75 nM FITC-MBM1 peptide and 0.5% DMSO in assay buffer. Dose-response titrations of test compounds are conducted using an 11 point, four-fold serial dilution scheme, starting typically at 10 μM.
Compound potencies were determined by first calculating % inhibition at each compound concentration according to equation 1:
% inhibition=((HC−LC)−(HTRF^compound−LC))/(HC−LC))*100 (Eqn 1)
Where LC and HC are the HTRF values of the assay in the presence or absence of a saturating concentration of a compound that competes with FITC-MBM1 for binding to menin, and HTRF^compound is the measured HTRF value in the presence of the test compound. HC and LC HTRF values represent an average of at least 10 replicates per plate.
% inhibition=Bottom+(Top−Bottom)/(1+10^((logIC50−log[cmpd])*h)) (Eqn 2)
Where Bottom and Top are the lower and upper asymptotes of the dose-response curve, respectively, IC50 is the concentration of compound that yields 50% inhibition of signal and h is the Hill coefficient. IC50 values below 0.1 nM in the HTRF assay were reported as 0.1 nM in the Table below (detection limit).
Preparation of Terbium cryptate labeling of Menin: Menin (a.a 1-610-6xhis tag (“6xhis tag” disclosed as SEQ ID NO: 2), 2.3 mg/mL in 20 mM Hepes (2-[4-(2-Hydroxyethyl)-1-piperazinyl]ethane sulfonic acid), 80 mM NaCl, 5 mM DTT (Dithiothreitol), pH 7.5) was labeled with terbium cryptate as follows. 200 μg of Menin was buffer exchanged into 1× Hepes buffer. 6.67 μM Menin was incubated with 8-fold molar excess NHS (N-hydroxysuccinimide)-terbium cryptate for 40 minutes at room temperature. Half of the labeled protein was purified away from free label by running the reaction over a NAP5 column with elution buffer (0.1 M Hepes, pH 7+0.1% BSA (bovine serum albumin)). The other half was eluted with 0.1 M phosphate buffered saline (PBS), pH7. 400 μl of eluent was collected for each, aliquoted and frozen at −80° C. The final concentration of terbium-labeled Menin protein was 115 μg/mL in Hepes buffer and 85 μg/mL in PBS buffer, respectively.

MOLM14 cells = experiment: Proliferation assay, spheroid-like growth, MOLM14 (MLL-AF9 rearranged); assay type: cell-based, human; conditions: Homo sapiens, MOLM-14, 192 h, 8 days, confluence as measure of spheroid size, read-out: spheroid assay_OneTime MOLM14 IC50
Method: The anti-proliferative effect of menin/MLL protein/protein interaction inhibitor test compounds was assessed in human leukemia cell lines. The cell line MOLM14 harbors a MLL translocation and expresses the MLL fusion proteins MLL-AF9, respectively, as well as the wildtype protein from the second allele. […] KO-52 was used as a control cell line containing two MLL (KMT2A) wildtype alleles in order to exclude compounds that display general cytotoxic effects.
MOLM14 cells were cultured in RPMI-1640 (Sigma Aldrich) supplemented with 10% heat-inactivated fetal bovine serum (HyClone), 2 mM L-glutamine (Sigma Aldrich) and 50 μg/ml gentamycin (Gibco). KO-52 cell lines were propagated in alpha-MEM (Sigma Aldrich) supplemented with 20% heat-inactivated fetal bovine serum (HyClone), 2 mM L-glutamine (Sigma Aldrich) and 50 μg/ml gentamycin (Gibco).
In order to assess the anti-proliferative effects, 200 MOLM14 cells, or 300 KO-52 cells were seeded in 200 μl media per well in 96-well round bottom, ultra-low attachment plates (Costar, catalogue number 7007). Cell seeding numbers were chosen based on growth curves to ensure linear growth throughout the experiment. Test compounds were added at different concentrations and the DMSO content was normalized to 0.3%. Cells were incubated for 8 days at 37° C. and 5% CO2. Spheroid like growth was measured in real-time by live-cell imaging (IncuCyteZOOM, Essenbio, 4× objective) acquiring images at day 8. Confluence (%) as a measure of spheroid size was determined using an integrated analysis tool.
In order to determine the effect of the test compounds over time, the confluence in each well as a measure of spheroid size, was calculated. Confluence of the highest dose of a reference compound was used as baseline for the LC (Low control) and the confluence of DMSO treated cells was used as 0% cytotoxicity (High Control, HC).
Absolute IC50 values were calculated as percent change in confluence as follows:
LC=Low Control: cells treated with e.g. 1 μM of the cytotoxic agent staurosporin, or e.g. cells treated with a high concentration of an alternative reference compound
GraphPad Prism (version 7.00) was used to calculate the IC50. Dose-response equation was used for the plot of % Effect vs Log 10 compound concentration with a variable slope and fixing the maximum to 100% and the minimum to 0%.

SMILES	IC50 [1] [nM]	IC50 (MOLM14 cells) [nM]
CC(C)C([C@H]1C[C@@H](N2CC[C@@](C)(O)C2)C1)N1CC2(CCN(c3ncnnc3Oc3ccc(F)cc3-c3cnccc3C3CC3)C2)C1 (mixture of isomers) [Compound 137]	0.2	7
CC(=O)N1CCN([C@H]2C[C@H]([C@H](C(C)C)N3CC4(CCN(c5ncnnc5Oc5ccc(F)cc5-c5cnncc5C5CC5)C4)C3)C2)CC1 (single isomer, unassigned) [Compound 105]	1	–
CC(C)[C@H]([C@H]1C[C@@H](N2CC3(CCC(=O)N3C)C2)C1)N1CC2(CCN(c3ncnnc3Oc3ccc(F)cc3-c3cncnc3C3CC3)C2)C1 (single isomer, unassigned) [Compound 316]	4.9	–
C[C@@H]([C@H]1C[C@@H](NC(=O)C2CC2)C1)N1CC2(CCN(c3ncnnc3Oc3ccc(F)cc3-c3cncnc3C3CC3)C2)C1 (single isomer, unassigned) [Compound 444]	0.16	–
CNC(=O)c1nccc(N[C@H]2C[C@@H]([C@@H](C(C)C)N3CC4(CCN(c5ncnnc5Oc5ccc(F)cc5-c5cncnc5C5CC5)C4)C3)C2)n1 (single isomer, unassigned) [Compound 457]	0.29	–
COC(=O)c1nccc(N[C@H]2C[C@@H](C(C(C)C)N3CC4(CCN(c5ncnnc5Oc5ccc(F)cc5-c5cncnc5C5CC5)C4)C3)C2)n1 (single isomer, unassigned) [Compound 489]	0.22	–
Cc1noc(C2CC2)c1-c1cc(F)ccc1Oc1nncnc1N1CCC2(C1)CN([C@H](C(C)C)[C@H]1C[C@@H](N(C)C)C1)C2 (single isomer, unassigned) [Compound 503]	0.18	–
Cc1noc(C2CC2)c1-c1cc(F)ccc1Oc1nncnc1N1CCC2(C1)CN([C@H](C(C)C)C1CC(NC(=O)OC(C)(C)C)C1)C2 (stereo partly drawn) [Compound 505, tert-butyl N-[3-[(1R)-1-[7-[6-[2-(5-cyclopropyl-3-methyl-isoxazol-4-yl)-4-fluoro-phenoxy]-1,2,4-triazin-5-yl]-2,7-diazaspiro[3.4]octan-2-yl]-2-methyl-propyl]cyclobutyl]carbamate]	0.54	–

More lines, now with the values ahead:

IC50 [1] [nM]	IC50 (MOLM14 cells) [nM]	SMILES
0.1	5	CC(C)[C@H]([C@H]1C[C@@H](N2CCC(C(=O)N(C)C)C2)C1)N1CC2(CCN(c3ncnnc3Oc3ccc(F)cc3-c3cncnc3C3CC3)C2)C1 (mixture of isomers) [Compound 210]
0.1	7	COC1(C)CCN([C@H]2C[C@@H]([C@H](C(C)C)N3CC4(CCN(c5ncnnc5Oc5ccc(F)cc5-c5nnccc5C5CC5)C4)C3)C2)C1 (mixture of isomers) [Compound 275]
0.11	1.9	Cc1ncc(-c2cc(F)ccc2Oc2nncnc2N2CCC3(C2)CN([C@@H](C(C)C)[C@H]2C[C@@H](N4CC5COCC5C4)C2)C3)c(C2CC2)n1 (mixture of isomers) [Compound 379]
0.12	32	Cc1nnc(C2CC2)n1-c1cc(F)ccc1Oc1nncnc1N1CCC2(C1)CN([C@H](C(C)C)C1CC(N(C)C)C1)C2 (mixture of isomers) [Compound 502, N,N-dimethyl-3-[(1R)-1-[7-[6-[2-(3-cyclopropyl-5-methyl-1,2,4-triazol-4-yl)-4-fluoro-phenoxy]-1,2,4-triazin-5-yl]-2,7-diazaspiro[3.4]octan-2-yl]-2-methyl-propyl]cyclobutanamine]
0.1	27	CC(C)[C@H]([C@H]1C[C@@H](NC2(C)CCS(=O)(=O)CC2)C1)N1CC2(CCN(c3ncnnc3Oc3ccc(F)cc3-c3cncnc3C3CC3)C2)C1 (single isomer, unassigned) [Compound 44]
0.5	–	CC(C)[C@@H](C1CN(CC2COC2)C1)N1CC2(CCN(c3ncnnc3Oc3ccc(F)cc3-c3cncnc3C3CC3)C2)C1 (single isomer, unassigned) [Compound 353]
0.53	–	C[C@@H]([C@H]1C[C@@H](NC(=O)C2(F)CC2)C1)N1CC2(CCN(c3ncnnc3Oc3ccc(F)cc3-c3cncnc3C3CC3)C2)C1 (single isomer, unassigned) [Compound 456]
0.06	–	CNC(=O)c1nc(N[C@H]2C[C@@H](C(C(C)C)N3CC4(CCN(c5ncnnc5Oc5ccc(F)cc5-c5cncnc5C5CC5)C4)C3)C2)oc1C (single isomer, unassigned) [Compound 459]
0.6	–	CC(=O)N[C@H]1C[C@@H](C(C(C)C)N2CC3(CCN(c4ncnnc4Oc4ccc(F)cc4-c4ccnnc4C4CC4)C3)C2)C1 (stereo partly shown) [Compound 182]
0.7	–	CC(C)C(C1CCN(CC2COC2)CC1)N1CC2(CCN(c3ncnnc3Oc3ccc(F)cc3-c3nccnc3C3CC3)C2)C1 (stereo not shown) [Compound 202]
0.58	–	Cc1noc(C2CC2)c1-c1cc(F)ccc1Oc1nncnc1N1CCC2(C1)CN([C@H](C(C)C)[C@H]1C[C@@H](NC(=O)OC(C)(C)C)C1)C2 [Compound 504, tert-butyl N-[3-[(1R)-1-[7-[6-[2-(5-cyclopropyl-3-methyl-isoxazol-4-yl)-4-fluoro-phenoxy]-1,2,4-triazin-5-yl]-2,7-diazaspiro[3.4]octan-2-yl]-2-methyl-propyl]cyclobutyl]carbamate]
